From ChEMBL document CHEMBL1145296, “Development of 6-substituted indolylquinolinones as potent Chek1 kinase inhibitors” (Bioorg Med Chem Lett, 2006)
pIC50: −log10 of the molar value.

Experiments:
[1] = biological target: T1, Serine/threonine-protein kinase Chk1 (Homo sapiens, UniProt O14757); experiment: Inhibition of human CHEK1
T1 sequence (O14757 whole entry): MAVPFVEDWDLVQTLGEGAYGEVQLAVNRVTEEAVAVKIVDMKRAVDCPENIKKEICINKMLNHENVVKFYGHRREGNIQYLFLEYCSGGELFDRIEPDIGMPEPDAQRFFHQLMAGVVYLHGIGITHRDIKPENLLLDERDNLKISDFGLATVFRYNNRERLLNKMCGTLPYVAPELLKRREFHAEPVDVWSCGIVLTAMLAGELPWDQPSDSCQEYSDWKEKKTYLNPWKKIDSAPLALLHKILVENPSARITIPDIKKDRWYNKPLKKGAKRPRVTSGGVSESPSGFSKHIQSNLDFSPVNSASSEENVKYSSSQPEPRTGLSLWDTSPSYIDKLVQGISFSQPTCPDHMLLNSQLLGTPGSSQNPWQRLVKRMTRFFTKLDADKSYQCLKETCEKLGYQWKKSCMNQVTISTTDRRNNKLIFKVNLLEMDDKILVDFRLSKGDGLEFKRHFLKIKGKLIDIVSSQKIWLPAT

[2] = Clearance in dog at 0.25 mg/kg, iv; type: ADME, organism-based, Canis lupus familiaris; design: dose 0.25 mg/kg, route intravenous; conditions: in vivo
[3] = Half life in dog at 0.25 mg/kg, iv; type: ADME, organism-based, Canis lupus familiaris; design: dose 0.25 mg/kg, route intravenous; conditions: in vivo
[4] = Partition coefficient, log P of the compound; type: physicochemical; conditions: octanol/water

Structure (SMILES)	pIC50 [1]	clearance [2]	half-life [3]	logP [4]
O=c1[nH]c2ccc(-n3ccnc3)cc2cc1-c1cc2cc(CN3CCCCC3)ccc2[nH]1	8.37	–	–	–
O=c1[nH]c2ccc(-c3cn[nH]c3)cc2cc1-c1cc2cc(CN3CCOCC3)ccc2[nH]1	9.08	34 mL/min/kg	2 h	–
CC(=O)N1CCN(Cc2ccc3[nH]c(-c4cc5cc(-c6cn[nH]c6)ccc5[nH]c4=O)cc3c2)CC1	8.60	27 mL/min/kg	1.5 h	–
O=c1[nH]c2ccc(-c3cccc(O)c3)cc2cc1-c1cc2cc(CN3CCCCC3)ccc2[nH]1	7.54	–	–	–
COc1cc(-c2ccc3[nH]c(=O)c(-c4cc5cc(CN6CCCCC6)ccc5[nH]4)cc3c2)ccc1O	7.70	–	–	–
CC(=O)N1CCN(Cc2ccc3[nH]c(-c4cc5cc(-c6cnn(C)c6)ccc5[nH]c4=O)cc3c2)CC1	8.52	6.5 mL/min/kg	4.1 h	–
O=c1[nH]c2ccc(-n3ccnn3)cc2cc1-c1cc2cc(CN3CCCCC3)ccc2[nH]1	9.13	–	–	–
O=c1[nH]c2ccc(-c3cc[nH]n3)cc2cc1-c1cc2cc(CN3CCCCC3)ccc2[nH]1	8.25	–	–	–
O=c1[nH]c2ccc(-c3cnsc3)cc2cc1-c1cc2cc(CN3CCCCC3)ccc2[nH]1	9.19	–	–	–
Cn1nnc(-c2ccc3[nH]c(=O)c(-c4cc5cc(CN6CCCCC6)ccc5[nH]4)cc3c2)n1	8.19	–	–	–
O=c1[nH]c2ccccc2cc1-c1cc2ccccc2[nH]1	6.00	–	–	–
Cn1cc(-c2ccc3[nH]c(=O)c(-c4cc5cc(CN6CCCCC6)ccc5[nH]4)cc3c2)cn1	8.96	–	–	–
COCC(=O)N1CCN(Cc2ccc3[nH]c(-c4cc5cc(-c6cn[nH]c6)ccc5[nH]c4=O)cc3c2)CC1	8.68	23 mL/min/kg	2 h	–

Further lines, results first:

pIC50 [1]	clearance [2]	half-life [3]	logP [4]	Structure (SMILES)
9.15	–	–	–	NCC1CCN(Cc2ccc3[nH]c(-c4cc5cc(C(N)=O)ccc5[nH]c4=O)cc3c2)CC1
6.72	–	–	–	N#Cc1ccc2cc(-c3cc4cc(CN5CCC(CN)CC5)ccc4[nH]3)c(=O)[nH]c2c1
9.00	22 mL/min/kg	2.5 h	–	O=c1[nH]c2ccc(-c3cn[nH]c3)cc2cc1-c1cc2cc(CN3CCC(F)CC3)ccc2[nH]1
9.47	–	–	–	NC(=O)c1ccc2[nH]c(=O)c(-c3cc4cc(CN5CCCCC5)ccc4[nH]3)cc2c1
6.24	–	–	–	N#Cc1cccc2[nH]c(=O)c(-c3cc4cc(CN5CCC(CN)CC5)ccc4[nH]3)cc12
8.40	–	–	–	N#Cc1ccc2[nH]c(=O)c(-c3cc4cc(CN5CCC(CN)CC5)ccc4[nH]3)cc2c1
8.54	–	–	–	O=c1[nH]c2ccc(Br)cc2cc1-c1cc2cc(CN3CCCCC3)ccc2[nH]1
7.85	–	–	–	O=c1[nH]c2ccc(-n3nccn3)cc2cc1-c1cc2cc(CN3CCCCC3)ccc2[nH]1
–	30 mL/min/kg	4.4 h	2.81	O=c1[nH]c2ccc(-c3cn[nH]c3)cc2cc1-c1cc2cc(CN3CCCCC3)ccc2[nH]1
8.34	–	–	–	N#Cc1ccc2[nH]c(=O)c(-c3cc4cc(CN5CCCCC5)ccc4[nH]3)cc2c1
